Here are results for one compound from patent US10053422B2, “Compounds for the treatment of mTOR pathway related diseases” (Pitney Pharmaceuticals Pty Limited, priority 2012, dated 2018).

The test system of test [1] is OVCAR-3 or A2780 cells. The test is described as follows: Cell cycle analysis by flow cytometry. It is filed as cell-based, human. On the procedure: OVCAR-3 (FIG. 3a) or A2780 (FIG. 3b) cells were treated with MPL (0, 5, 10 and 25 μmol/L) for 48 hours. Propodium iodide stained cells were analysed for DNA content using flow cytometric analysis. The results (see table) are shown as a percentage of cells in G1, S and G2/M phases. Each value represents mean±SEM of 2 independent experiments.
OVCAR-3 or A2780 cells were treated with MPL (0, 5, 10, 25 μM) for 48 h and examined by flow cytometric analysis (FACS) after staining the cells with PI. The Fig. and data present MPL-induced change in cell distribution in various phases of the cell cycle, here shown as percentage of cells in G1, S and G2/M phases. Each value represents mean±SEM of 2 independent determinations.
The effect of MPL on the cell cycle was determined using standard flow cytometry analysis protocols and procedures. Briefly, 0.7×10^6 […] cells seeded in […] flasks and allowed to adhere overnight were treated with MPL for 24 or 48 h. Cells were collected with trypsinization and pooled with the cells floating in the medium. The cell suspensions were centrifuged, washed with PBS and fixed with methanol. Cells were then washed, resuspended in propodium iodide and ribonuclease A in PBS for 30 min at room temperature and analyzed by flow cytometry (Becton Dickinson FACSort).

The test system of test [2] is A2780 ovarian cancer cells. Nature of the test: Autophagy (vacuole formation), A2780. Type of test: cell-based, human. The source says: Autophagy is a characteristic of mTOR inhibition.
Test [3] relates to mTOR signaling in s.c. grown OVCAR-3 tumors. Nature of the test: Western blot of tumor lysates, mTOR related signaling. It is filed as in vivo, female nude mice. On the procedure:
Western blot analysis of tumor lysates prepared from s.c. grown OVCAR-3 tumors in female nude mice. Mice were treated from day 8 post cell inoculation i.p. for 3 weeks with MPL (25, 50 mg/kg suspended in 0.5% HPMC given i.p.) or the vehicle (0.5% HPMC). 24 hours after the last dose, tumors were excised and frozen at −80° C. […] Protein expression of mTOR together with c-Myc, cyclins D1 and E2 and CDKs 2 and 4 were suppressed in tumors excised from MPL treated mice.
Female nude mice (6 weeks old) were purchased from Biological Resources (Faculty of Medicine, University of New South Wales). An institutional animal ethics approval covered all procedures carried out on mice. Briefly, 2.5×10^6 log-phase growing OVCAR-3 cells were injected s.c. into the left flank of each mouse. Animals were weighed once weekly while their tumor volumes were determined twice weekly. Tumor growth was monitored by caliper measurements of orthogonal diameters, and the estimated tumor volume was calculated based on the formula ½ (Length×Width^2), where width is the shorter of the two orthogonal measurements. Based on institutional ethics approval, mice were euthanized before the tumor volume reached 500 mm^3. Treatment was initiated on day 8 after tumor cell injection when mice were randomized and assigned to treatment or the control group (6 per group). […]
On the technique in general: A western blot detects proteins with antibodies after separation by electrophoresis.

A further test relates to 3T3 fibroblast. The test is described as follows: SRB cell proliferation assay, 3T3. To be noted: 3T3, fibroblast (Table 2); read-out: IC50 in suppressing proliferation. Type of test: cell-based. On the procedure:
(§1) Cell proliferation was assessed using the sulforhodamine B (SRB) assay. Cells seeded in 96-well plate (2,000-3,000 cell/well) were treated with MPL (0, 1, 5, 10, 25, 50 and 100 μmol/L) for 72 h. Cells were then fixed, washed and stained with 100 μl of 0.4% (w/v) SRB dissolved in 1% acetic acid. Unbound dye was removed by five washes with 1% acetic acid before air drying. Bound SRB was solubilized with 100 μl of 10 mM Tris base (pH 10.5) and the absorbance read at 570 nm. Exactly the same procedure was used to assess MPL-SO2. Both agents were dissolved in ethanol and diluted with media to give the final concentrations required for cell culture assays.

Test [4] concerns NF-κB signal transduction pathway in LPS-stimulated RAW 264.7 cells. Nature of the test: NF-κB signal transduction in LPS-stimulated macrophages. It is filed as cell-based. An excerpt:
LPS-stimulated RAW 264.7 cells macrophages were used as an in vitro model system for inflammation.

The subject of a further test is OVCAR-3 cells. The test is described as follows: SRB cell proliferation assay, OVCAR-3. It is filed as cell-based, human. On the procedure: as §1
For test [5], the system named is OVCAR-3 or A2780 cells. The test is described as follows: Cellular ATP and ADP/ATP ratio. Type of test: cell-based, human. The method, then: ADP and ATP levels in the media were measured using the commercial colorimetric/fluorometric assay kits from Abcam together with the ApoGlow assay kit from Lonza (Sydney, Australia subsidary). Each value represents mean+s.e.m. of at least two determinations.

Each structure is given as a SMILES string. Like-named read-outs stand apart in the source and are kept apart here.

On to `C[C@](C#N)(COc1cc(C#N)ccc1C(F)(F)F)NC(=O)c1ccc(SC(F)(F)F)cc1` [MPL, N-[(1S)-1-Cyano-2-(5-cyano-2-trifluoromethyl-phenoxy)-1-methyl-ethyl]-4-trifluoromethylsulfanyl-benzamide], for which, in the test with OVCAR-3 or A2780 cells [1] (25 μM MPL), the “percentage of cells in the G2-M phase, vehicle treated group versus treated group” value is given as “more than three times higher”. For the same compound, the cell cycle progression result with OVCAR-3 or A2780 cells [1] (concentration and time-dependent) was “arrested in the G1 phase”. Further, in test [2], the “formation of vacuoles (autophagy)” value is “formation of vacuoles”. In test [3] (25, 50 mg/kg i.p. for 3 weeks, tumors excised 24 hours after last dose), the “tumor mTOR signaling (Western blot)” value is given as “suppression of mTOR signaling”. Besides, the “tumor expression of cyclin D1” value in test [3] (MPL treated tumor bearing mice) is reported as “dramatic down-regulation of cyclin D1”. The IC50 in the test with 3T3 fibroblast is 12.4 ± 0.37 µM. In addition, in test [4], the IKK phosphorylation result is “inhibitory effect”, the IL-6 expression entry is recorded as “down regulation of IL-6 expression”, the IκB-α phosphorylation result is given as “inhibitory effect” and the “NF-κB p65 phosphorylation” value is “inhibitory effect”. In addition, in test [4], the NO expression result is “abrogates NO expression” and the TGF-β expression entry is “down regulation of TGF-β expression”. In test [4] (immunocytochemistry and Western blot), the NF-κB activation entry was “decreased NF-κB activation”. Besides, the IC50 in the test with OVCAR-3 cells (Homo sapiens, OVCAR-3, ovarian cancer, 72 h in vitro treatment, SRB assay (Table 1), read-out: IC50) stood at 6.3 µM. Also, the IC50 in the test with OVCAR-3 cells (OVCAR-3, human epithelial ovarian cancer (Table 3), read-out: IC50 μM OVCAR-3) stood at 7.9 ± 0.9 µM. Further, the “potency of MPL-(R) compared with MPL-(S)” value in the test with OVCAR-3 cells (results of Table 3) is “equipotent”. Also, the “cellular ATP levels” value with OVCAR-3 or A2780 cells [5] is “reduction in ATP levels”.
